Tests used:
Type in all cases: biochemical
[1] = target: T1, METTL7B (methyltransferase-like protein 7B) (Homo sapiens, UniProt Q6UX53); assay: methylsulfide formation, LC-MS/MS after monobromobimane derivatization, saturable kinetics
T1 construct: gene TMT1B; His-GST-METTL7B, N-terminal His-GST tag with (AP)5 linker
T1 sequence (Q6UX53 1-244): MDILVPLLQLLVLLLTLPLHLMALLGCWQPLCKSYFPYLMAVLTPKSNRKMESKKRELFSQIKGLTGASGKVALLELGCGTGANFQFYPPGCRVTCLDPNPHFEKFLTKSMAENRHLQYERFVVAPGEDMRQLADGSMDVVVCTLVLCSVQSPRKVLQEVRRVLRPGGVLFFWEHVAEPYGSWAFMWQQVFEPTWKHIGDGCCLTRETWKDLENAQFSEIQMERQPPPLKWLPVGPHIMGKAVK

[2] = target: T1, METTL7B (methyltransferase-like protein 7B); assay: MTaseGlo substrate screen (AdoHcy formation) with purified enzyme
From the text: MTaseGlo substrate screen (AdoHcy formation) with purified enzyme on METTL7B (methyltransferase-like protein 7B) | D-Penicillamine|++

[3] = target: T1, METTL7B (methyltransferase-like protein 7B); assay: S-methyl captopril formation by purified enzyme, LC-MS/MS; D98A inactive
[4] = target: T1, METTL7B (methyltransferase-like protein 7B); assay: Michaelis-Menten kinetics of S-methyl captopril formation, LC-MS/MS

S [hydrogen sulfide]
methylsulfide formation, LC-MS/MS after monobromobimane derivatization, saturabl [1]: Peak area ratio (PAR) versus concentration curve for hydrogen sulfide methylation as measured by formation of methylsulfide

CC(C)(S)[C@@H](N)C(=O)O [D-penicillamine]
MTaseGlo substrate screen (AdoHcy formation) with purified enzyme [2]: D-Penicillamine|++

C[C@H](CS)C(=O)N1CCC[C@H]1C(=O)O [captopril]
S-methyl captopril formation by purified enzyme, LC-MS/MS; D98A inactive [3]: concentration-dependent formation of S-methyl captopril was observed upon incubation with purified wild-type His-GST-METTL7B

C[S+](CC[C@H](N)C(=O)[O-])C[C@H]1O[C@@H](n2cnc3c(N)ncnc32)[C@H](O)[C@@H]1O (stereo partly drawn) [S-adenosyl-L-methionine]
Michaelis-Menten kinetics of S-methyl captopril formation, LC-MS/MS [4]: the AdoMet activity curve was saturable and exhibited classic Michaelis–Menten kinetics

Source: PMC7921093, “Human METTL7B is an alkyl thiol methyltransferase that metabolizes hydrogen sulfide and captopril” (Scientific Reports, 2021)
